# According to patent publication US4710489A, “Glutathione delivery system” (Cornell Research Foundation, Inc., priority 1985, dated 1987):
# How the values were obtained:
# [1] = test system: level of liver glutathione; settings: for glutathione level of the liver: fasted mice, acetaminophen 2.5 mmol/kg i.p., test compound 10 mmol/kg one-half hour later
# Experimental: In this example, fasted mice were injected intraperitoneally with acetaminophen (2.5 mmol/kg), and one-half hour later (indicated by arrow in FIG. 3), they were given GSH monomethyl ester, GSH, L-cysteine, L-cysteine methyl ester (10 mmol/kg) or an equivalent volume of 0.15 M NaCl (control). Tissue GSH levels were determined at the indicated intervals on groups (3) of mice; values are means ±S.D.
# [2] = test system: mice
# [3] = test system: glutathione level of the liver and kidney; assay: Glutathione levels of liver and kidney of fasted mice given glutathione ester or glutathione (Example 1, Comparative Example 1); format: in vivo; settings: for glutathione in the kidney / glutathione level of the liver: fasted mice, i.p. 10 millimoles per kilogram, 2 hours after administration, vs saline controls
# Experimental: A solution of the glutathione ester was prepared in aseptic water. […] At intervals of 2 hours, as shown in FIGS. 1(a) and (b), the animals were decapitated and the liver and kidney tissues were removed and analyzed for glutathione. Using groups of 3 mice each, values are given as means ±S.D.
# [4] = test system: glutathione levels of the liver and kidney; assay: Glutathione levels of liver and kidney of mice pretreated with buthionine sulfoximine (Example 2); format: in vivo
# Source text: Controls were again given saline, with tissue levels of GSH being determined at the indicated intervals. Values are means ±S.D., using groups of 3 mice each.
# [5] = test system: GSH level in the liver and in the kidney; assay: GSH level in liver and kidney of starved mice (Example 6); format: in vivo; settings: i.p. 10 mmol/kg, 2 to 3 hours after the administration
# Experimental: The test compound was dissolved in sterile water to give a test solution. Groups of 3 mice, each having a body weight of 20 to 25 g, were starved over a period of 24 hours and treated intraperitoneally with a dose of 10 mmol/kg of the test compound. Mice were dissected by every two hours, and the liver and kidney were taken out. GSH analysis was performed on each of the organs.
# [6] = test system: GSH levels in the liver and in the kidney; assay: GSH levels in liver and kidney after 35S-labeled test compound, GSH synthesis inhibited by buthionine sulfoximine (Example 5); format: in vivo; settings: mice, i.p. 7.5 mmol/kg, two hours after treatment, buthionine sulfoximine 2 mmol/kg 14 and 4 hours before dissection
# Experimental: Groups of 3 or 4 mice, each having a body weight of 18 to 22g, were starved over a period of 12 hours and treated intraperitoneally with a dose of 7.5 mmol/kg of the test compound labeled by ^35 S (GSH labeled by ^35 S was used as the starting material). Two hours after the treatment, the test mice were dissected, and the liver and kidney were taken out. These organs were homogenized in 5 fold volume of 5% sulfosalicylic acid and centrifuged over a period of 5 minutes to give 0.05 ml of a supernatant fluid. The supernatant fluid was admixed with 0.95 ml of water and 4 ml of monofluorine scintillation fluid, and the ^35 S content was assayed by the use of an LKB scintillation counter. On the other hand, the supernatant fluid was treated with monobromobimane and subjected to HPLC to determine the amount of the test compound. The intracellular GSH synthesis was inhibited by administering intraperitoneally 2 mmol/kg of buthionine sulfoximine 14 hours and 4 hours before the dissection.
# [7] = test system: mice; assay: Survival of starved mice after lethal dose of acetaminophen (Example 8); format: in vivo; settings: acetaminophen 5 mmol/kg i.p., test compound 10 mmol/kg one hour later, 15 mice, 7 days
# Source text: Starved mice were intraperitoneally treated with 5 mmol/kg (lethal dose) of acetaminophen and, one hour later, with 10 mmol/kg of the test compound.
# [8] = test system: glutamic-pyruvic acid transaminase (GPT) activity in serum; assay: Serum GPT activity after acetaminophen (Example 9, Table 1); format: in vivo, Male ICR mice; settings: half an hour after acetaminophen 2.5 mmol/kg, blood 8 hours after acetaminophen, ± SD
# Experimental: Male ICR mice, each having a body weight of 30 to 40 g, were starved over a period of 15 hours and intraperitoneally treated with 2.5 mmol/kg of acetaminophen. The acetaminophen was used as a solution in Cremophore buffer (i.e. physiological saline solution containing 10% Cremophore and 1.5% ethanol). Half an hour later a designed amount of the test compound was intraperitoneally administered to the mice. The test compound was used as a solution in physiological saline adjusted to pH 6.5. […] Then, the glutamic-pyruvic acid transaminase (GPT) activity in serum was assayed. The results are shown in Table 1 as a percentage to that of the control group to which only acetaminophen was administered.
# Note: Figure is a percentage of blood GPT activity to that of Control
# Group (± Standard Deviation (n = 4 - 16)).
# [9] = test system: GSH level in the liver; assay: GSH level in the liver after sublethal acetaminophen (Example 7); format: in vivo; settings: acetaminophen 2.5 mmol/kg i.p.; for GSH level in the liver: starved mice, test compound 10 mmol/kg i.p. half an hour later
# Experimental: Groups of three starved mice were intraperitoneally treated with 2.5 mmol/kg (less than the lethal dose) of acetaminophen, and half an hour later 10 mmol/kg of the test compound was intraperitoneally administered to the mice. […] When other thiols such as L-cysteine and L-cysteine methyl ester were administered under the same conditions, the GSH level in the liver was markedly low.
# [10] = mice pretreated with 2 mmol/kg buthionine sulfoximine, ester 10 mmol/kg i.p. 4 hours after the inhibitor
# [11] = buthionine sulfoximine 2 mmol/kg, before ester
Compound,glutathione level of the liver [1],GSH level in the kidney [5],GSH level in the liver [5],GSH level in the kidney [6],GSH level in the liver [6],survival [7],percentage of blood GPT activity to that of Control Group ([8]; Dosage 0.01 mmol/kg i.p.),percentage of blood GPT activity to that of Control Group ([8]; Dosage 0.1 mmol/kg i.p.),percentage of blood GPT activity to that of Control Group ([8]; Dosage 0.3 mmol/kg i.p.),percentage of blood GPT activity to that of Control Group ([8]; Dosage 1 mmol/kg i.p.),GSH level in the liver [9],other results
COC(=O)CNC(=O)[C@H](CS)NC(=O)CC[C@H](N)C(=O)O [glutathione monomethyl ester],increased markedly,–,–,–,–,–,–,–,–,–,–,"fatalities ([2]; acetaminophen 5 mmole per kilogram, ester 10 mmole per kilogram 1 hour later, 15 mice, 7 days): no fatalities; glutathione in the kidney [3]: increased substantially; glutathione level of the liver [3]: increased substantially; glutathione level in kidney [4, 10]: substantial increase; glutathione level in liver [4, 10]: substantial increase"
"CCOC(=O)CNC(=O)[C@H](CS)NC(=O)CC[C@H](N)C(=O)O [glutathione monoethyl ester, L-γ-Glutamyl-L Cysteinyl Glycyl Ethyl Ester]",–,–,–,–,–,–,–,–,–,–,–,effects on tissue glutathione levels compared with glutathione monomethyl ester ([3]; comparison of monoethyl with monomethyl ester): about the same
"CCCCCCOC(=O)CNC(=O)[C@H](CS)NC(=O)CC[C@H](N)C(=O)O [GSH mono-n-hexyl ester, n-Hexyl γ-L-glutamyl-L-cysteinylglycinate]",–,substantial elevation,substantial elevation,more than 2.0 μmol/g,more than 1.0 μmol/g,survived,100.6 ± 31.3%,60.6 ± 15.8%,13.2 ± 0.3%,3.0 ± 0.3%,marked elevation,percentage of blood GPT activity to that of Control Group ([8]; Dosage 0.03 mmol/kg i.p.): 82.3 ± 33.5%
"CC(C)OC(=O)CNC(=O)[C@H](CS)NC(=O)CC[C@H](N)C(=O)O [GSH monoisopropyl ester, Isopropyl γ-L-glutamyl-L-cysteinylglycinate]",–,substantial elevation,substantial elevation,more than 2.0 μmol/g,more than 1.0 μmol/g,survived,75.2 ± 15.0%,19.8 ± 7.9%,8.8 ± 3.5%,3.8 ± 0.5%,marked elevation,percentage of blood GPT activity to that of Control Group ([8]; Dosage 0.03 mmol/kg i.p.): 51.2 ± 15.6%
"CCCCS(=N)(=O)CCC(N)C(=O)O (centres unmarked) [buthionine sulfoximine, reference compound]",–,–,–,–,–,–,–,–,–,–,–,"glutathione level of the kidney after the inhibitor [4, 11]: decreased to a very low value; glutathione level of the liver after the inhibitor [4, 11]: decreased to a very low value"
"N[C@@H](CCC(=O)N[C@@H](CS)C(=O)NCC(=O)O)C(=O)O [GSH, L-γ-glutamyl-L-cysteinyl-glycine, reference compound]",–,slight elevation,No elevation,0.560 µmol/g,0.582 µmol/g,–,–,105.3 ± 20.1%,68.5 ± 16.3%,4.2 ± 0.5%,–,glutathione in the kidney [3]: only a slight effect; glutathione level of the liver [3]: no effect
"CC(=O)Nc1ccc(O)cc1 [acetaminophen, reference compound]",–,–,–,–,–,–,–,–,–,–,–,"level of liver glutathione after acetaminophen alone ([1]; sublethal dose 2.5 mmol/kg i.p., control given 0.15 M NaCl): marked decrease; lethality of acetaminophen alone ([2]; 5 mmole per kilogram, 40 mice, within 7 days): all of the mice died; GSH level in the liver after acetaminophen alone ([9]; control group given 0.15 M saline): Marked fall"
"N[C@@H](CS)C(=O)O [L-cysteine, reference compound]",much less,–,–,–,–,–,–,–,–,–,markedly low,–
"COC(=O)[C@@H](N)CS [L-cysteine methyl ester, reference compound]",much less,–,–,–,–,–,–,–,–,–,markedly low,–
"CC(C)COC(=O)CNC(=O)[C@H](CS)NC(=O)CC[C@H](N)C(=O)O [GSH monoisobutyl ester, Isobutyl γ-L-glutamyl-L-cysteinylglycinate]",–,substantial elevation,substantial elevation,more than 2.0 μmol/g,more than 1.0 μmol/g,survived,84.1 ± 13.0%,44.8 ± 14.8%,–,3.6 ± 0.4%,marked elevation,–
